Reference: patent EP4501112A1, “PLANT DEFENSE ELICITORS” (Globachem NV, priority 2023, dated 2025)
Read-outs that look alike come from different tables or passages of the source.

Tests used:
[1] = test system: Root knot nematode (Meloidogyne graminicola); assay: Root knot nematode gall development on wheat roots after treatment; type: in vivo; conditions: foliar spraying, stock solution 200 x diluted; 400 J2 per plant 24 hours after treatment; 14 days after inoculation
Method: DISEASE/PEST: Root knot nematode (Meloidogyne graminicola) CROP: Triticum aestivum APPLICATION: Foliar application EXPERIMENT/TRIAL PROTOCOL: After seed germination, wheat plants were grown individually for 2 weeks in a PVC tube (18 cm height, 3 cm diameter) filled with a substrate of sand and a water-absorbing polymer (DCM Aquaperla). Plants were grown at 24 °C and supplied with Hoagland solution and water 3 times per week. They were treated after 2 weeks. Twenty-four hours after treatment they were inoculated with 400 nematode juveniles (second stage; J2) per plant. 8 individual plants were analyzed per treatment. Evaluation of nematode infection was done 14 days after inoculation. Development of galls on the roots was microscopically observed and counted. No females were observed yet at this early time point, in any of the treatments. The number of galls was reduced in the […], pelargonic acid ([…] decanoic acid (pm4) treated plants. Azelaic acid (pm3) had no effect on gall numbers in the used concentration. FORMULATION USED: […] PM1 is already formulated.

[2] = test system: Phytophthora infestans (PHYTIN); assay: whole plant or invertebrate; type: in vivo; conditions: in Solanum tuberosum, foliar
Maize (cultivar Mofox) = assay: Abiotic stress (flooding, drought, daily watered) growth trial on maize, foliar treatment
[3] = test system: Puccinia triticina (PUCCTR); assay: Greenhouse trial, seed treatment against PUCCTR in wheat; type: in vivo
Excerpt: [table] Table 9. Efficacy assessment of pelargonic acid as seed treatment of PUCCTR in wheat (variety Benchmark)

Cacopsylly pyri = assay: Field trial, foliar spray against C. pyri on pear trees; type: in vivo; conditions: 650 g/ha
Excerpt: DISEASE/PEST: Cacopsylly pyri CROP: Pear trees (pyrus communis spp. Williams) APPLICATION: Foliar spray (spring - when 50% of eggs are yellow) EXPERIMENT/TRIAL PROTOCOL: Foliar spray was applied in the field with a motorized sprayer (OleomacSP126) in spring when the insects appeared on the crop (BBCH 72-75). The trial design consisted of a randomized complete block with 4 replications per treatment. The treated area per plot was 24m^2. Used water volume was […]/ha. Evaluation was done by counting nymphs per 10 shoots. […] This is due to the effect on the plant's immune system. […] Table 6. Efficacy assessment: % efficacy versus untreated (%UNCK) of C. pyri on P. communis (field)

Leptosphaeria maculans = assay: Seed treatment lab trial against Leptosphaeria maculans in oilseed rape seedlings; type: in vivo; conditions: Plenodomus lingam, in Brassica napus, 144 h, 6 days after inoculation, read-out: % Efficacy
Excerpt: [table] Table 8: Efficacy assessment of fatty acids in seed treatment of Leptosphaeria maculans in oilseed rape (variety Helga)

Plutella xylostella = assay: P. xylostella survival and leaf damage on untreated leaves after treating one leaf of Chinese cabbage; type: in vivo; set-up: key to P. xylostella leaf damage: 0=no damage or no sucking observed; 1=some damage or some sucking observed; 3=half leaf eaten or half of aphids sucking the leaf; 5=no leaf left or all insects sucking and reproducing; conditions: for P. xylostella leaf damage: damage scale 0 - 5
Method: DISEASE/PEST: Plutella xylostella / Myzus persicae CROP: Chinese cabbage (Brassica rapa subsp. Pekinensis) APPLICATION: FOLIAR on one leaf of the plant EXPERIMENT/TRIAL PROTOCOL: […] Leaves were left to dry for 1 hour. P. xylostella or M. persicae were added to clip cages on non-treated leaves 1 hour or 24 hours after the applied treatment wherein those cages restrict the movement of the insects to the other leaves. Table 2. Effect on survival and leaf damage of P. xylostella and […] on untreated leaves of […].

[4] = daily watered (normal) conditions, foliar 65 g/ha
[5] = daily watered (normal) conditions, foliar 325 g/ha
[6] = daily watered (normal) conditions, foliar 650 g/ha
[7] = daily watered (normal) conditions, foliar 1300 g/ha
[8] = drought conditions, foliar 65 g/ha
[9] = drought conditions, foliar 325 g/ha
[10] = drought conditions, foliar 650 g/ha
[11] = drought conditions, foliar 1300 g/ha
[12] = flooding conditions, foliar 65 g/ha
[13] = flooding conditions, foliar 325 g/ha
[14] = flooding conditions, foliar 650 g/ha
[15] = flooding conditions, foliar 1300 g/ha
[16] = seed treatment 3.8 g ai/ton, 11 dai
[17] = seed treatment 7.6 g ai/ton, 11 dai
[18] = seed treatment 38 g ai/ton, 11 dai
[19] = seed treatment 76 g ai/ton, 21 dai

CCCCCCCCC(=O)O [Pelargonic acid, pelargonic acid]
number of galls [1]: reduced
% efficacy ([2]; read-out: ASSESSMENT 7 DAI (% efficacy), foliar 0.76 g/ha): 0.2%
% efficacy ([2]; read-out: ASSESSMENT 7 DAI (% efficacy), foliar 1.14 g/ha): 14%
% efficacy ([2]; read-out: ASSESSMENT 7 DAI (% efficacy), foliar 1.52 g/ha): 20.1%
% efficacy ([2]; read-out: ASSESSMENT 7 DAI (% efficacy), foliar 2.66 g/ha): 23%
% efficacy ([2]; read-out: ASSESSMENT 7 DAI (% efficacy), foliar 3.80 g/ha): 18.6%
% efficacy ([2]; read-out: ASSESSMENT 7 DAI (% efficacy), foliar 5.32 g/ha): 17.7%
% efficacy ([2]; read-out: ASSESSMENT 7 DAI (% efficacy), foliar 7.60 g/ha, inoculated 7 days after treatment): 3%
% efficacy ([2]; read-out: ASSESSMENT 14 DAI (% efficacy), foliar 0.76 g/ha): 0%
% efficacy ([2]; read-out: ASSESSMENT 14 DAI (% efficacy), foliar 1.14 g/ha): 7.9%
% efficacy ([2]; read-out: ASSESSMENT 14 DAI (% efficacy), foliar 1.52 g/ha): 22%
% efficacy ([2]; read-out: ASSESSMENT 14 DAI (% efficacy), foliar 2.66 g/ha): 21.9%
% efficacy ([2]; read-out: ASSESSMENT 14 DAI (% efficacy), foliar 3.80 g/ha): 7%
% efficacy ([2]; read-out: ASSESSMENT 14 DAI (% efficacy), foliar 5.32 g/ha): 16.7%
% efficacy ([2]; read-out: ASSESSMENT 14 DAI (% efficacy), foliar 7.60 g/ha): 5.4%
% total growth to control (Maize (cultivar Mofox); [4]): 71%
ASSESSMENT total growth after 15 days (cm) (Maize (cultivar Mofox); [4]): 18.4 cm
% total growth to control (Maize (cultivar Mofox); [5]): 87%
ASSESSMENT total growth after 15 days (cm) (Maize (cultivar Mofox); [5]): 22.5 cm
% total growth to control (Maize (cultivar Mofox); [6]): 95%
ASSESSMENT total growth after 15 days (cm) (Maize (cultivar Mofox); [6]): 24.8 cm
% total growth to control (Maize (cultivar Mofox); [7]): 78%
ASSESSMENT total growth after 15 days (cm) (Maize (cultivar Mofox); [7]): 20.3 cm
% total growth to control (Maize (cultivar Mofox); [8]): 87%
ASSESSMENT total growth after 15 days (cm) (Maize (cultivar Mofox); [8]): 17.4 cm
% total growth to control (Maize (cultivar Mofox); [9]): 87%
ASSESSMENT total growth after 15 days (cm) (Maize (cultivar Mofox); [9]): 17.6 cm
% total growth to control (Maize (cultivar Mofox); [10]): 112%
ASSESSMENT total growth after 15 days (cm) (Maize (cultivar Mofox); [10]): 22.2 cm
% total growth to control (Maize (cultivar Mofox); [11]): 91%
ASSESSMENT total growth after 15 days (cm) (Maize (cultivar Mofox); [11]): 18.2 cm
% total growth to control (Maize (cultivar Mofox); [12]): 104%
ASSESSMENT total growth after 15 days (cm) (Maize (cultivar Mofox); [12]): 26.3 cm
% total growth to control (Maize (cultivar Mofox); [13]): 104%
ASSESSMENT total growth after 15 days (cm) (Maize (cultivar Mofox); [13]): 26.1 cm
% total growth to control (Maize (cultivar Mofox); [14]): 90%
ASSESSMENT total growth after 15 days (cm) (Maize (cultivar Mofox); [14]): 22.6 cm
% total growth to control (Maize (cultivar Mofox); [15]): 82%
ASSESSMENT total growth after 15 days (cm) (Maize (cultivar Mofox); [15]): 20.7 cm
EFFICACY % ALL LEAVES [3, 16]: 17.3%
EFFICACY % LEAF 1 [3, 16]: 0.0%
EFFICACY % LEAF 2 [3, 16]: 14.3%
EFFICACY % LEAF 3 [3, 16]: 17.6%
EFFICACY % LEAF 4 [3, 16]: 20.0%
EFFICACY % ALL LEAVES [3, 17]: 29.6%
EFFICACY % LEAF 1 [3, 17]: 0.0%
EFFICACY % LEAF 2 [3, 17]: 7.1%
EFFICACY % LEAF 3 [3, 17]: 11.8%
EFFICACY % LEAF 4 [3, 17]: 70.0%
EFFICACY % ALL LEAVES [3, 18]: 6.3%
EFFICACY % LEAF 1 [3, 18]: 0.0%
EFFICACY % LEAF 2 [3, 18]: 7.1%
EFFICACY % LEAF 3 [3, 18]: 11.8%
EFFICACY % LEAF 4 [3, 18]: 0.0%
EFFICACY % ALL LEAVES [3, 19]: 19.2%
EFFICACY % LEAF 1 [3, 19]: 31.8%
EFFICACY % LEAF 2 [3, 19]: 18.9%
EFFICACY % LEAF 3 [3, 19]: 12.0%
EFFICACY % LEAF 4 [3, 19]: 14.0%
% efficacy versus untreated (%UNCK) of C. pyri on P. communis (field) (Cacopsylly pyri; 14 DAA): 56.4 b %
% efficacy versus untreated (%UNCK) of C. pyri on P. communis (field) (Cacopsylly pyri; 21 DAA): 63.1 b %
% efficacy versus untreated (%UNCK) of C. pyri on P. communis (field) (Cacopsylly pyri; 28 DAA): 100 b %
% efficacy versus untreated (%UNCK) of C. pyri on P. communis (field) (Cacopsylly pyri; 800L/ha water, 3 DAA): 83.8 b %
Emax (Leptosphaeria maculans; seed treatment 0.76 g/ton, % healthy plants vs infected seedlings): 100%
Emax (Leptosphaeria maculans; seed treatment 3.04 g/ton): 80%
Emax (Leptosphaeria maculans; seed treatment 6.08 g/ton): 80%
Emax (Leptosphaeria maculans; seed treatment 7.60 g/ton): 100%
P. xylostella leaf damage (Plutella xylostella; 0.78 mg on one leaf, insects added 1h after treatment, 6 DAT): 1
P. xylostella leaf damage (Plutella xylostella; 0.78 mg on one leaf, insects added 1h after treatment, 24h AT): 1
P. xylostella leaf damage (Plutella xylostella; 0.78 mg on one leaf, insects added 24 h after treatment, 6 DAT): 5
P. xylostella leaf damage (Plutella xylostella; 0.78 mg on one leaf, insects added 24 h after treatment, 24h AT): 4
P. xylostella survival (Plutella xylostella; 0.78 mg on one leaf, insects on non-treated leaves, added 1h after treatment, 6 DAT): growth limited to L3 stage
larval maturation and leaf damage in P. xylostella (Plutella xylostella; 0.78mg, insects introduced 1h after treatment to an untreated leaf of the same plant): reduction
